Experimental data published in PMC6115449, “Rapid and simple detection of Tamiflu-resistant influenza virus: Development of oseltamivir derivative-based lateral flow biosensor for point-of-care (POC) diagnostics” (Scientific Reports, 2018).

Experiments:
[1] = target: WT NA (neuraminidase of pandemic H1N1 virus A/California/07/2009) (Influenza A virus (A/California/07/2009(H1N1)), UniProt C3W6G3); assay: fluorescence NA activity assay (ex […] nm, em […] nm); format: biochemical; details: 37 °C, 60 min; whole virus
[2] = target: WT NA (neuraminidase of pandemic H1N1 virus A/California/07/2009) (Influenza A virus (A/California/07/2009(H1N1)), UniProt C3W6G3); assay: fluorescence NA inhibition assay (NA-Fluor, MUNANA); format: biochemical; details: MUNANA substrate; 30 min preincubation, 60 min reaction, 37 °C; whole virus 10^6 PFU/mL; ethyl ester prodrug tested as such

CC(=O)N[C@H]1[C@H]([C@H](O)[C@H](O)CO)O[C@@](Oc2ccc3c(C)cc(=O)oc3c2)(C(=O)O)C[C@@H]1O [2-(4-methylumbelliferyl)-a-D-N-acetylneuraminic acid]
fluorescence NA activity assay (ex 360 nm, em 450 nm) [1]: (MUNANA) was used as the fluorescent substrate to determine the NA enzymatic parameters

CCOC(=O)C1=C[C@@H](OC(CC)CC)[C@H](NC(C)=O)[C@@H](N)C1 [compound 3, oseltamivir phosphate]
relative NA activity [2]: increase in oseltamivir phosphate concentration was accompanied by its binding to WT NA and inhibition
